Experimental data published in patent publication EP4682145A1, “BENZOHETEROCYCLIC COMPOUND, AND PREPARATION METHOD THEREFOR AND USE THEREOF” (Cascade Pharmaceuticals, Inc., priority 2023, dated 2024).

Columns and labels:
[1] = test system: C57BL6/J mice; experiment: In vivo pharmacodynamic assay for non-alcoholic fatty liver disease (high-fat, high-cholesterol, high-fructose diet mice); settings: for Hepatic Hydroxyproline / Total Liver Hydroxyproline (µg/liver): liver; for ALT (U/L) / AST (U/L): serum
Protocol: Normal male C57BL6/J mice ([…]) were fed a high-fat, high-cholesterol, high-fructose diet (D09100310, Research Diets) for 20 weeks. Based on body weight and biochemical data, the mice were randomly divided into groups, with 6 mice per group. The compound 169 (0.03, 0.1, and 0.6 mg/kg) was administered via oral gavage. The positive control was MGL3196 (1 mg/kg), and the blank control group consisted of mice of the same strain and age fed a normal diet for the same duration. The blank control and model control groups were given the vehicle (15% solutol + 85% DDW), totaling 6 groups. Administration was performed once daily for 28 days. After overnight fasting, on day 29 at the experimental endpoint, blood was collected from the heart after CO2 euthanasia. Serum ALT and AST biochemical indicators were measured, and liver tissue was harvested for hepatic hydroxyproline content determination.
Blood was collected using anticoagulant-free tubes, allowed to stand at room temperature for 30 minutes, and then centrifuged at 4000 rpm for 10 minutes to separate serum, which was tested by Dian Diagnostics. Approximately 50 mg of liver tissue was taken from each mouse and tested according to the hydroxyproline assay kit method (Nanjing Jiancheng, Cat. No.: A030-2-1).
(§1) Data were expressed as mean ± standard deviation. One-way ANOVA was employed for statistical analysis, with p < 0.05 considered statistically significant.

[2] = test system: normal C57BL6/J mice; experiment: Oral glucose tolerance test (OGTT) in normal C57BL6/J mice; format: in vivo; settings: 1 mg/kg gavage, single dose; for AUC 0-120 minutes: blood glucose AUC
Protocol: Eighteen normal male C57BL6/J mice (8-9 weeks old) were selected and randomly divided into 3 groups based on body weight and blood glucose levels, with 6 mice in each group. On the day of the OGTT, fasting was initiated at 8:30 AM. At 11:30 AM, drug interventions were administered via gavage (vehicle control, compound 14, 1 mg/kg, and compound 169, 1 mg/kg). At 1:30 PM, glucose (2 g/kg) was administered via gavage, while the blank control group received the vehicle control orally (2% DMSO + 15% solutol + 83% DDW solution) at a dosing volume of 10 mL/kg. Blood glucose measurements during the OGTT were taken at the following time points: 0, 15, 30, 60, 90, and 120 minutes after glucose administration.
Blood glucose levels were measured at 0, 15, 30, 60, and 120 minutes after glucose administration. The area under the curve (AUC) for blood glucose over 120 minutes was calculated. [formula]
Note: BG0, BG15, BG30, BG60, BG90, and BG120 represent the blood glucose levels at 0, 15, 30, 60, 90, and 120 minutes after glucose administration, respectively.
as §1

[3] = 0.03 mpk oral gavage once daily for 28 days
[4] = 0.1 mpk oral gavage once daily for 28 days
[5] = 0.6 mpk oral gavage once daily for 28 days

## COc1ccc(F)c(N2CCC(c3oc4cc([C@@H](CC(=O)O)C5CC5)ccc4c3-c3ccc(C(C)(C)C)cc3)CC2)c1 [Compound 169]
[1]; [3]
  Hepatic Hydroxyproline: 128.06 ± 55.18 µg/g
  Total Liver Hydroxyproline (µg/liver): 308.56±121.44 µg/liver
  ALT (U/L): 148±81.95 U/L
  AST (U/L): 204.5±79.09 U/L
[1]; [4]
  Hepatic Hydroxyproline: 119.16 ± 39.65 µg/g
  Total Liver Hydroxyproline (µg/liver): 266.4±80.67 µg/liver
  ALT (U/L): 110±37.12 U/L
  AST (U/L): 156±30.59 U/L
[1]; [5]
  Hepatic Hydroxyproline: 85.24 ± 47.63 µg/g
  Total Liver Hydroxyproline (µg/liver): 187.94±110.56 µg/liver
  ALT (U/L): 103.8±35.53 U/L
  AST (U/L): 163.2±42.98 U/L
[1]; doses of 0.03, 0.1, and 0.6 mg/kg, compared with the model control
  liver protection and liver fibrosis inhibition effects: reduced ALT, AST, and liver hydroxyproline levels
[2]; 0 minutes after glucose (2 g/kg)
  Blood Glucose: 7.88 ± 0.62 mmol/L
[2]; 15 minutes after glucose (2 g/kg)
  Blood Glucose: 12.78 ± 1.65 mmol/L
[2]; 30 minutes after glucose (2 g/kg)
  Blood Glucose: 9.28 ± 1.32 mmol/L
[2]; 60 minutes after glucose (2 g/kg)
  Blood Glucose: 9.28 ± 1.32 mmol/L
[2]; 90 minutes after glucose (2 g/kg)
  Blood Glucose: 7.67 ± 2.31 mmol/L
[2]; 120 minutes after glucose (2 g/kg)
  Blood Glucose: 7.13 ± 1.25 mmol/L
[2]; 1 mg/kg
  AUC 0-120 minutes: 1075±66.01
[2]; listed as compound 169, 1 mg/kg
  AUC 0-120 minutes: significantly reduced
